# Measured values published in US20140193436A1, “EXTRACELLULAR TARGETED DRUG CONJUGATES” (priority 2011, published 2014).
# Like-named read-outs stand apart in the source and are kept apart here.
# Experiments:
# [1] = test system: H460 LCLC cells; assay: In vitro cytotoxicity assessment (CellTiter-Glo cell viability), H460; format: cell-based, human
# Excerpt: (§1) Cells and culture conditions: Cell lines H460, HT29, A549, PANC-1, MB231, FaDu, H69 and H929 were obtained from the American Type Culture Collection (ATCC), Manassas, Va. The malignant melanoma cell line LOX IMVI was obtained from the DCTD Tumor Repository, National Cancer Institute, Frederick, Md., The cell lines were maintained in the recommended media formulations and subcultured every 3 to 4 days. To activate expression of certain targets to which the drug moiety bind and/or to form Na,K-ATPase complexes with certain proteins, cells can be cultured in recommended media plus additives such as phorbol esters, various growth factors and cytokines such as VEGF, fibroblast growth factors, human growth factors, interleukins, and tumor necrosis factors. In addition, cells can be cocultured with other cells like human fibroblasts. Additionally, microtiter plates can be coated with various proteins like fibrinogen.
# (§2) Cells were incubated in the presence of test compound for 72 hr prior to cell viability testing.
# [2] = test system: HT29 Colon cells; assay: In vitro cytotoxicity assessment (CellTiter-Glo cell viability), HT29; format: cell-based, human
# Excerpt: as §1, §2
# [3] = test system: A549 NSCLC cells; assay: In vitro cytotoxicity assessment (CellTiter-Glo cell viability), A549; format: cell-based, human
# Excerpt: as §1, §2
# [4] = test system: PANC1 Pancreas cells; assay: In vitro cytotoxicity assessment (CellTiter-Glo cell viability), PANC1; format: cell-based, human
# Excerpt: as §1, §2
# [5] = test system: MB231 Breast cells; assay: In vitro cytotoxicity assessment (CellTiter-Glo cell viability), MB231; format: cell-based, human
# Excerpt: as §1, §2
# [6] = test system: FaDu Head/neck cells; assay: In vitro cytotoxicity assessment (CellTiter-Glo cell viability), FaDu; format: cell-based, human
# Excerpt: as §1, §2
# [7] = test system: H69 SCLC cells; assay: In vitro cytotoxicity assessment (CellTiter-Glo cell viability), H69; format: cell-based, human
# Excerpt: as §1, §2
# [8] = test system: LOX Melanoma cells (LOX IMVI); assay: In vitro cytotoxicity assessment (CellTiter-Glo cell viability), LOX; format: cell-based, human
# Excerpt: as §1, §2
# [9] = test system: H929 Myeloma cells; assay: In vitro cytotoxicity assessment (CellTiter-Glo cell viability), H929; format: cell-based, human
# Excerpt: as §1, §2
# [10] = test system: HT-29 human colon cancer xenograft; assay: HT-29 human colon cancer xenograft model; format: in vivo, Hsd:Athymic Nude-Foxn1nu mice; settings: 15 mg/kg qd×5 (positive control); compared to vehicle
# Method: Briefly, to establish a human colorectal adenocarcinoma disease model, tumors from HT-29 xenograft bearing mice were minced and 8 mm^3 fragments were transplanted s.c. by trocar needle into the left flank of Hsd:Athymic Nude-Foxn1^nu mice (Harlan, Indianapolis, Ind.). Therapy with EDC2.2 was then initiated when the tumor volume in groups of 7 animals averaged ˜100 mm^3. Treatment using vehicle control and either 1 or 5 mg/kg EDC2.2 was administered i.v. using the schedule of one injection every 3 days with 4 total injected doses (q3d×4). 15 mg/kg paclitaxel dosed at qd×5 served as a positive control treatment group. Tumor volumes were measured for each group using calibrated vernier calipers and plotted against first day of tumor implant for 69 days post-implant and 41 days post-initial dose. […] Therefore, EDCs that employ targeting moieties to CD147 conjugated to agents that act on the Na,K-ATPase should be generally useful in treating colon cancers.
smiles,measurement,setting,value
C[C@]12CC[C@H](OC3OC[C@H](N)[C@@H](O)[C@@H]3O)C=C1CCC1C2CC[C@]2(C)[C@@H](c3ccc(=O)oc3)CC[C@]12O (stereo partly shown) [CEN09-106],EC50,"[1]; H460 LCLC, 72 hr with test compound, read-out: EC50",1.4 nM
same,EC50,"[2]; HT29 Colon, 72 hr with test compound, read-out: EC50",2.9 nM
same,EC50,"[3]; A549 NSCLC, 72 hr with test compound, read-out: EC50",0.66 nM
same,EC50,"[4]; PANC1 Pancreas, 72 hr with test compound, read-out: EC50",1.1 nM
same,EC50,"[5]; MB231 Breast, 72 hr with test compound, read-out: EC50",3.3 nM
same,EC50,"[6]; FaDu Head/neck, 72 hr with test compound, read-out: EC50",3.1 nM
same,EC50,"[7]; H69 SCLC, 72 hr with test compound, read-out: EC50",1 nM
same,EC50,"[8]; LOX Melanoma, 72 hr with test compound, read-out: EC50",2.5 nM
same,EC50,"[9]; H929 Myeloma, 72 hr with test compound, read-out: EC50",3.1 nM
C[C@]12CC[C@H](O[C@H]3OC[C@H](NC(=O)CCOCCOCCOCCOCCOCCOCCOCCOCCOCCOCCOCCOCCOCCOCCOCCOCCOCCOCCOCCOCCOCCOCCOCCOCCNC(=O)CCN4C(=O)C=CC4=O)[C@H](O)C3O)C=C1CCC1C2CC[C@]2(C)[C@@H](c3ccc(=O)oc3)CC[C@]12O (stereo partly shown) [CEN010-105],EC50,"[1]; Homo sapiens, NCI-H460, 72 h",76.9 nM
same,EC50,"[2]; Homo sapiens, HT-29, 72 h",60 nM
same,EC50,"[3]; Homo sapiens, A549, 72 h",31.3 nM
same,EC50,"[4]; Homo sapiens, PANC-1, 72 h",27.1 nM
same,EC50,"[5]; Homo sapiens, 72 h",109 nM
same,EC50,"[6]; Homo sapiens, FaDu, 72 h",75.5 nM
same,EC50,"[7]; Homo sapiens, 72 h",26.6 nM
same,EC50,"[8]; Homo sapiens, LOX, 72 h",71 nM
same,EC50,"[9]; Homo sapiens, NCI-H929, 72 h",89.6 nM
"CC(=O)O[C@H]1C(=O)[C@@]2(C)[C@H]([C@H](OC(=O)c3ccccc3)[C@]3(O)C[C@H](OC(=O)[C@H](O)[C@@H](NC(=O)c4ccccc4)c4ccccc4)C(C)=C1C3(C)C)[C@]1(OC(C)=O)CO[C@@H]1C[C@@H]2O [Paclitaxel, paclitaxel]",growth inhibition of the tumor,[10],85%
